The subject of the assay is strain G009. As to the kind of experiment: Lipase inhibition test: prevention of TAG degradation in cultivation of strain G009. The assay is classed as cell-based, Streptomyces albus. The settings on record: G009, waste medium. The procedure:
Also g/l values of TAGs were estimated by image analysis using Image J program. The standard curve was prepared using concentration scale from 1 g/l up to 40 g/l and the titre of lipids in the culture broth was measured against the standard curve. The whole culture broth (solid stage cultivations) or separated mycelia was extracted with an equal volume of chloroform-methanol (Clf-MeOH; 2:1). Tubes were incubated in a shaker at RT for 1 hour. After centrifugation sample was taken from the extract and analysed by TLC and/or by GC. Dry extract weight was determined by drying 1-5 ml of extract at RT for one day in air blow after which mass was determined by weighing. The mass was given as grams per 1 liter of the culture broth. The spores of the strain […] were cultivated in the medium containing the following raw materials in 1 L of tap water, pH 7: Dextrose 75 20 g, Bagasse 20 g, Biowaste from bakery and garden (1:1) 5 or 10 g, Algae 25 to 50 g, MgSO4.7 H2O 1 g, KH2PO4 1 g and CaCO3 3 g. The cultivation conditions were 28° C., 300 rpm for 11 days. After 6 days of cultivations, 0.05 g/l AgNO3 or 0.4% of TritonX100 solution containing 0.05 g/l of CaCO3. The flasks without the said supplements were considered as controls for lipase inhibition treatment study. Cultivation was continued in the same conditions for 5 days more. The samples were taken after 7, 8 and 11 days of cultivations according to the general sampling protocols used in this invention and the results of sampling are shown here. The parallel cultivations were done with two concentrations of both algae debris and biowaste and the upper row of each test condition gave a result with higher concentration of both waste fractions.

Where [1] appears, read: supplement added after 6 days, sample 11 day.

Molecules are shown by their SMILES.

With `O=[N+]([O-])[O-].[Ag+]` [AgNO3], the “Weight of Chloroform extract (g/l), 7 day” value (28° C., 300 rpm, supplement added after 6 days (0.05 g/l AgNO3 or 0.4% TritonX100 solution containing 0.05 g/l CaCO3), sample 7 day) was determined as 7.7 g/L. Moreover, under “supplement added after 6 days, sample 7 day”, the “Quantity of TAGs g/l by Image J, 7 day” value worked out at 4.8 g/L. The “Quantity of TAGs g/l by Image J, 8 day” value (supplement added after 6 days, sample 8 day) was 4.8 g/L. For the same compound, under setting [1], the “Quantity of TAGs g/l by Image J, 11 day” value turned out to be 4.8 g/L and the “Weight of Chloroform extract (g/l), 11 day” value amounted to 8.5 g/L.

The values above are taken from patent US8697403B2, “Process and microorganisms for production of lipids from lignocellulosic wastes or residues” (Neste Oil Oyj, priority 2010, dated 2014).
